Data reported in US8778927B2, “Smoothened antagonism for the treatment of hedgehog pathway-related disorders” (Novartis AG, priority 2008, dated 2014).

Assays:
[1] = tested on: Ptch+/−Hic+/− medulloblastoma allograft; assay: Ptch+/−Hic+/− medulloblastoma allograft model, continuous dosing; type: in vivo, mouse; conditions: day 47
Text: (§1) Mouse medulloblastoma cells (1.0−5.0×10^6), dissociated directly from tumor fragments originally derived from spontaneously arising medulloblastomas in Ptch+/−p53−/−, Ptch+/−Hic+/− or Ptch+/− mice, were inoculated subcutaneously into the right flank of Harlan nu/nu mice. Treatment was initiated approximately 7-10 days post implantation. Animals were randomized into treatment groups with similar mean tumor volumes that ranged from approximately 250-300 mm3. Tumor volumes (mm3) and body weights (g) were recorded two or three times per week from all groups for analysis. Dose was body weight adjusted at time of dosing. Comparisons between treatment groups was performed using a non-parametric Kruskal-Wallis/Wilcoxon Rank Sum Test.
(§2) Tumors were calipered in two dimensions, and the volumes were calculated using the formula: (length×width2)/2, where length is the longer of the two measurements and width is the shorter one. Percent treatment/control (% T/C) values were calculated using the following formula: % T/C=100×ΔTf−i/ΔCf−i if ΔTf−i>0, % T/T0=100×ΔTf−i/T0 if ΔTf−i<0 (regression). A partial responder (PR) was defined as an animal whose tumor was less than 50% of the initial tumor volume by the end of the study. An animal with no palpable tumor by the end of study is defined as a complete responder (CR).
Treatments started on day 7 post implantation (5 million cells/animal). Compound 1 was administered po at 5 mg/kg bid, 10 mg/kg bid, 20 mg/kg qd, 20 mg/kg bid, 40 mg/kg bid and 80 mg/kg bid for the length of study. Compound 2 was administered at 100 mg/kg bid for the length of study. Vehicle control of Compound 1 was 0.5% methylcellulose 0.5% Tween 80 in water. The initial group size consisted of 8 animals. The vehicle group was taken down 10 days after treatment (tumors greater than 10% of mouse body weight).
Sustained regressions listed in the Table 1 represent number of complete responses still present at the end of study on day 47.
Two additional Smo inhibitors, Compound 3 and Compound 4 were evaluated in follow-up studies in the Ptch+/−Hic+/− model upon continous dosing.

[2] = tested on: Ptch+/− medulloblastoma allograft; assay: Ptch+/− medulloblastoma allograft model, continuous dosing; type: in vivo, mouse; conditions: day 48
Text: as §1, §2
Treatments started on day 7 post implantation (5 million cells/animal). Compound 1 was administered po at 10 mg/kg qd, 20 mg/kg qd, 40 mg/kg qd, 80 mg/kg qd and 160 mg/kg qd for the length of study. Compound 2 was administered at 100 mg/kg bid for the length of study. Vehicle control of Compound 1 was 0.5% methylcellulose 0.5% Tween 80 in water. The initial group size consisted of 8 animals. The vehicle group was taken down 7 days after treatment (tumors greater than 10% of mouse body weight). Similar resistance was seen to that observed with the Ptc+/−Hic+/− model, with a subset of the complete responders growing back and others showing complete regression (Table 2). Sustained regression listed in Table 2 represent number of complete regressions still present at the end of study on day 48.

[3] = tested on: sensitive medulloblastoma tumor cells; assay: ex-vivo medulloblastoma proliferation assay (3H thymidine, 48 h), sensitive tumor cells; type: cell-based; conditions: Mus musculus
Experimental: (§3) The effect of statins (e.g., simvastatin, flustatin) on the proliferation of medulloblastoma cells derived from sensitive and resistant Ptch+/− cells was evaluated by using an “ex-vivo medulloblastoma proliferation assay.” Using Ptch+/−p53−/−, Ptch+/−Hic+/− or Ptch+/− medulloblastoma tumors freshly harvested from allografted nude mice, we have developed a short-term 48 h proliferation assay that enables us to assess the in vitro potency of Smo inhibitors. The read-out for proliferation uses incorporation of 3H thymidine. The assay reflects the in vivo sensitivity of tumor cells to Compound 1.
(§4) The effect of PI3K inhibitors (e.g., compounds such as Compound A) on the proliferation of medulloblastoma cells derived from sensitive and resistant medulloblastoma cells was evaluated by using an “ex-vivo medulloblastoma proliferation assay,” as described above.

[4] = tested on: resistant medulloblastoma tumor cells; assay: ex-vivo medulloblastoma proliferation assay (3H thymidine, 48 h), resistant tumor cells; type: cell-based, mouse; conditions: Mus musculus
Experimental: as §3, §4

[5] = tested on: Hedgehog signaling pathway genes; assay: Affymetrix mRNA profiling of tumors, Hedgehog pathway genes; type: in vivo, mouse
Experimental: (§5) In order to characterize changes in gene expression in sensitive tumors compared to resistant tumors (both of which terms are defined herein), RNA was isolated from sensitive tumors treated with vehicle or Compound 1 for 4 (single dose), 16 (single dose) and 48 hours (three doses) as well as from resistant tumors (that initially had regressed in the presence of Compound 1 (day 13) but then regrew in the presence of drug as described above). Three tumors were analyzed per treatment group: The sensitive tumor group comprises tumors treated with 20 mg/kg of Compound 1 for 4 hours; 16 hours; and 48 hours. The resistant tumor group comprises tumors treated with 10 mg/kg bid and 80 mg/kg bid of Compound 1 for 26 days. mRNA expression in tumor samples was analyzed by Affymetrix profiling. The expression data were analyzed using the GeneGo pathway program, which groups data according to signal transduction pathways.

[6] = tested on: Cholesterol biosynthesis pathway genes; assay: Affymetrix mRNA profiling of tumors, cholesterol biosynthesis genes; type: in vivo, mouse; conditions: sensitive and resistant tumors
Experimental: as §5

PI3K pathway genes = assay: Affymetrix mRNA profiling of tumors, PI3K pathway genes; type: in vivo, mouse
Experimental: as §5

[7] = tested on: Ptch+/−Hic+/− medulloblastoma allograft; assay: combination of Smo inhibitor and PI3K inhibitor in Ptch+/−Hic+/− medulloblastoma allograft model; type: in vivo, mouse
Text: Mouse medulloblastoma cells (1.0-5.0×10^6), dissociated directly from tumor fragments originally derived from spontaneously arising medulloblastomas in Ptch+/-p53-/-, Ptch+/-Hic+/- or Ptch+/- mice, were inoculated subcutaneously into the right flank of Harlan nu/nu mice. Treatment was initiated approximately 7-10 days post implantation. Animals were randomized into treatment groups with similar mean tumor volumes that ranged from approximately 250-300 mm3. Tumor volumes (mm3) and body weights (g) were recorded two or three times per week from all groups for analysis. Dose was body weight adjusted at time of dosing. Comparisons between treatment groups was performed using a non-parametric Kruskal-Wallis/Wilcoxon Rank Sum Test. Tumors were calipered in two dimensions, and the volumes were calculated using the formula: (length×width2)/2, where length is the longer of the two measurements and width is the shorter one. […] A partial responder (PR) was defined as an animal whose tumor was less than 50% of the initial tumor volume by the end of the study. An animal with no palpable tumor by the end of study is defined as a complete responder (CR). Next, a combination of Compound 1 and Compound A was explored in the Ptch+/-Hic+/- medulloblastoma allograft model. […] Animals treated with vehicle control and with compound A had to be sacrificed around day 20 and 25, respectively, because their tumor volume reached 1500 mm3. […] Similar results were obtained for animals treated with Compound 1 alone for the first 10 days, followed by single agent treatment with Compound A (data not shown). […] Next, a combination of Compound 1 and Compound B was explored in the Ptch+/-Hic+/- medulloblastoma allograft model. […] Animals treated with vehicle control and with compound B reached the endpoint around day 12 to 15, respectively, because their tumor volume reached 700 mm3.

Cc1c(C(=O)Nc2ccc(N3C[C@@H](C)O[C@@H](C)C3)nc2)cccc1-c1ccc(OC(F)(F)F)cc1 [Compound 1, 2-Methyl-4′-trifluoromethoxy-biphenyl-3-carboxylic acid [6-(cis-2,6-dimethyl-morpholin-4-yl)-pyridin-3-yl]-amide]
sustained regressions (complete responses still present at end of study) ([1]; 5 mg/kg bid po): 0/8 | sustained regressions (complete responses still present at end of study) ([1]; 10 mg/kg bid po): 1/8 | sustained regressions (complete responses still present at end of study) ([1]; 20 mg/kg bid po): 7/8 | sustained regressions (complete responses still present at end of study) ([1]; 20 mg/kg qd po): 0/8 | sustained regressions (complete responses still present at end of study) ([1]; 40 mg/kg bid po): 3/8 | sustained regressions (complete responses still present at end of study) ([1]; 80 mg/kg bid po): 6/8 | sustained regressions (complete regressions still present at end of study) ([2]; 10 mg/kg qd po): 0/8 | sustained regressions (complete regressions still present at end of study) ([2]; 20 mg/kg qd po): 1/8 | sustained regressions (complete regressions still present at end of study) ([2]; 40 mg/kg qd po): 1/8 | sustained regressions (complete regressions still present at end of study) ([2]; 80 mg/kg qd po): 4/8 | sustained regressions (complete regressions still present at end of study) ([2]; 160 mg/kg qd po): 5/8 | IC50 ([3]; Sensitive tumor, Table 3): 3 nM | IC50 ([3]; ptch+/− Hic+/−, sensitive, Table 4): 2 nM | IC50 ([3]; sensitive cells, summary of Table 4): 2 to 4 nM | IC50 ([3]; sensitive tumor cells, text b482): 4 nM | IC50 ([4]; Resistant tumor, Table 3): > 20 µM | IC50 ([4]; ptch+/− Hic+/−, Resistant, Table 4): > 20 µM | IC50 ([4]; resistant tumors, summary of Table 4): > 20 µM | IC50 ([4]; resistant tumors, text b482): > 20 µM | expression of Hedgehog pathway genes ([5]; resistant tumors, 10 and 80 mg/kg bid, 26 days): no longer sufficiently inhibited the expression of Hedgehog pathway genes | expression of genes indicative of Hedgehog signaling pathway activity ([5]; sensitive tumors, 20 mg/kg, 4 h, 16 h, 48 h): suppressed in sensitive tumors in a time-dependent manner | expression of genes of the Cholesterol biosynthesis pathway [6]: A similar expression pattern was observed | PI3K pathway activity (gene expression) (PI3K pathway genes; resistant tumors compared to sensitive tumors): upregulation of PI3K pathway activity was observed in resistant tumors | expression of genes indicative of PI3K pathway activity (PI3K pathway genes; sensitive tumors, 4, 16 and 48 h): No changes in gene expression were detected | effect on tumor growth ([7]; 40 mg/kg qd, FIG. 6A): initially induced regression but tumors started to regrow | time to endpoint (tumor volume >1500 mm3) ([7]; 40 mg/kg qd, FIG. 6B): significantly prolonged | effect on tumor growth ([7]; 80 mg/kg qd, FIG. 7A): initially induced regression but tumors started to regrow | time to endpoint (tumor volume >700 mm3) ([7]; 80 mg/kg qd, FIG. 7B): significantly prolonged
